Source: patent US6071884A, “Pharmaceutical compositions and therapeutic methods” (Kirin Beer Kabushiki Kaisha, priority 1992, dated 2000)

What was measured:
[1] = system: mononuclear cell fraction of human umbilical cord blood; assay: Proliferation-stimulating effect on mononuclear cell fraction of human umbilical cord blood (3H-TdR uptake); format: cell-based; conditions: 96 h, percentage of control, 4 days; for activity at 0.1 µg/mL: 10^-1 μg/ml; for activity at 0.01 µg/mL: 10^-2 μg/ml; for activity at 0.001 µg/mL: 10^-3 μg/ml
Source text: Pharmacological Test 3: Proliferation-Stimulating Effect on Mononuclear Cell Fraction of Human Umbilical Cord Blood
It is extremely difficult to obtain human marrow cells. In addition, human umbilical cord blood contains stem cells (Nakahata, T. & Ogwa, M., J. Clin. Inveet. 70, 1324-1328 (1982)), so that it can be a good source of hematopoietic stem/progenitor cell supply (H. E. Broxneyer et al, Proc. Natl. Acad. Sci. USA, 86, 3828-3832 (1989)). For these reasons, the effect on human was examined by using, instead of human marrow cells, human umbilical cord blood.
To human umbilical cord blood was added an equal amount of RPMI 1640. This was placed on a Lymphoprep and centrifugal. The mononuclear cell fraction (MNF) thus obtained was used in the following experiment.
The concentration of the MNF was adjusted to 1×10^6 cells/ml by using an RPMI 1640 added with 10% auto-blood plasma as a culture medium. 10 μl/well of a sample with a predetermined concentration and 100 μl/well of the above-prepared MNF were placed on a round-bottomed 96 well plate and incubated under the conditions of 37° C. and 5% CO2 for 4 days. Thereafter, 0.5 μCi/well of ^3 H-TdR was added. After 8 hour incubation, the cells were harvested, and the amount of the 3H-TdR taken in the nuclei was measured by a liquid scintillation counter.

[2] = Life-span-increasing effect on irradiation of a lethal dose of radiation; format: in vivo, mouse (BDF1); conditions: 10 mice/group, 9 Gy X-ray, 0.1 mg/kg i.v. days 0, 4, 8
Description: Pharmacological Test 4: Life-Span-Increasing Effect on Irradiation of a Lethal Dose of Radiation
An experiment was carried out by using 6 week old female BDF1 mice purchased from Japan SLC Co., Ltd., with 10 mice made one group.
The entire bodies of the entire body of the mice were irradiated with 9 Gy of X-rays by using a Hitachi X-ray irradiator (MBR-1520R), and the day on which the X-ray was irradiated was referred to as "day 0".

[3] = system: marrow cells (mononuclear cell fraction); assay: Proliferation-stimulating effect on marrow cell of mouse (3H-TdR uptake); format: cell-based, mouse (BALB/c); conditions: percentage of control, 72 h; for activity at 0.1 µg/mL: 10^-1 μg/ml; for activity at 0.01 µg/mL: 10^-2 μg/ml; for activity at 0.001 µg/mL: 10^-3 μg/ml; for activity at 1 µg/mL: 10^0 μg/ml
Description: Pharmacological Test 1: Proliferation-Stimulating Effect on Marrow Cell of Mouse
Marrow cells were prepared from the thigh bone of a 7 week old female BALB/c mouse purchased from Japan SLC Co., Ltd., and a mononuclear cell fraction (MNF) obtained by fractionation using a lympholyte-M (Cedar Lane, Ontario, Canada) was used in the following experiment.
The concentration of the MNF was adjusted to 1.5×10^6 cells/ml by using 10% FCS RPMI 1640 (Nissui Pharmaceutical Co., Ltd., Tokyo, Japan) as a culture medium. 10 μl/well of a sample with a predetermined concentration and 100 μl/well of the above-prepared MNF were placed on a round-bottomed 96 well plate, and incubated under the conditions of 37° C. and 5% CO2 for 72 hours. Thereafter, 0.5 μCi/well of ^3 H-thymidine (^3 H-TDR) was added. After 8 hour incubation, the cells were harvested, and the amount of the 3H-TdR taken in the nuclei was measured by a liquid scintillation counter.

[4] = system: blood platelets; assay: Thrombocytopenia-inhibiting effect in X-ray-irradiated mice; format: in vivo, mouse (BDF1); conditions: 10 days after 5 Gy X-ray; 0.1 mg/kg i.v. within 2 h; mean ± SD; vehicle per series 10.3, 6.8, 6.7; non-treatment 68.2, 96.9, 73.0
Description: Pharmacological Test 5: Thromboclytopenia-Inhibiting Effect
The thrombocytopenia-inhibiting effect of each sample upon an X-ray-irradiated mouser which is one of models with a decreased number of blood platelets was examined.
An experiment was carried out by using 6 week old female BDF1 mice purchased from Japan SLC Co., Ltd., with 6 mice made one group.
5 Gy of X ray was irradiated to the entire body of the mice by a Hitachi X-ray irradiator CMBR-1520R). Within 2 hours after the irradiation, each sample was administered to the caudal vein of the mice at an amount of 0.1 mg/kg.
After 10 days, blood was collected from the fundus vein of the mice, and the number of blood platelets was measured by a sequential multi-channel hemocytometer E-2500/cs (Toa Iyo Denshi Kabushiki Kaisha). The number of blood platelets of the non-treated group, that of the medium-administered group, and that of the sample-administered group are shown in Table 5.

[5] = system: blood platelets; assay: Blood-platelet-increasing effect upon normal mouse; format: in vivo, mouse (BDF1); conditions: normal mice; 6 days after 0.1 mg/kg i.v.; mean ± SD; vehicle per series 58.2, 63.0, 71.1
Description: Pharmacological Test 6: Blood-Platelet-Increasing Effect upon Mouse
An experiment was carried out by using 6 week old female BDF1 mice purchased from Japan SLC Co., Ltd., with 5 mice made one group.
Each sample was administered to the caudal vein of the mice at a dose of 0.1 mg/kg. After 6 days, blood was collected from the fundus vein of the mice, and the number of blood platelets was measured by a sequential multi-channel hemocytometer E-2500/cs (Toa Iyo Denshi Kabushiki Kaisha). The number of blood platelets of the vehicle-administered group, and that of the sample-administered group are shown in Table 6.

[6] = day 10, controls per series 10, 10, 10, 10, 10, 8
[7] = day 15, controls per series 8, 9, 5, 5, 7, 1
[8] = day 20, controls per series 4, 5, 1, 2, 3, 0
[9] = day 25, controls per series 3, 3, 0, 0, 2, 0
[10] = day 30, controls per series 1, 1, 0, 0, 0, 0

Structure (SMILES)	activity at 0.1 µg/mL [1] [%]	activity at 0.01 µg/mL [1] [%]	activity at 0.001 µg/mL [1] [%]	Number of Surviving Mice [2, 6] [mice]	Number of Surviving Mice [2, 7] [mice]	Number of Surviving Mice [2, 8] [mice]	Number of Surviving Mice [2, 9] [mice]	Number of Surviving Mice [2, 10] [mice]	Number of Surviving Mice ([2]; day 35, all controls 0) [mice]	Number of Surviving Mice ([2]; day 40, all controls 0) [mice]	activity at 0.1 µg/mL [3] [%]	activity at 0.01 µg/mL [3] [%]	activity at 0.001 µg/mL [3] [%]	Number of Blood Platelets [4]	Number of Blood Platelets [5]	activity at 1 µg/mL [3] [%]
CCCCCCCCCCCCCCCCCCCCCCCC(=O)N[C@@H](CO[C@H]1O[C@H](CO)[C@H](O)[C@H](O)[C@H]1O)[C@H](O)[C@H](O)CCCCCCCCCCCCCC [Compound 16, (2S,3S,4R)-1-(α-D-galactopyranosyloxy)-2-tetracosanoylamino-3,4-octadecanediol]	311	204	216	10	6	6	6	6	6	6	495	152	115	21.1 ± 6.2 × 10^4 /μl	114.7 ± 13.0 × 10^4 /μl	–
CCCCCCCCCCCCCCCCCCCCCC[C@H](O)C(=O)N[C@@H](CO[C@H]1O[C@H](CO)[C@H](O)[C@H](O)[C@H]1O)[C@H](O)[C@H](O)CCCCCCCCCCCCC [Compound 28, (2S,3S,4R)-1-(α-D-galactopyranosyloxy)-2-[(S)-2-hydroxytetracosanoylaminol]-3,4-heptadecanediol]	356	331	182	10	10	10	8	8	8	8	192	170	130	20.4 ± 4.5 × 10^4 /μl	103.6 ± 8.8 × 10^4 /μl	–
CCCCCCCCCCCCCCCCCCCCCC[C@@H](O)C(=O)N[C@@H](CO[C@H]1O[C@H](CO)[C@H](O)[C@H](O)[C@H]1O)[C@H](O)[C@H](O)CCCCCCCCCCCCCC [Compound 21, (2S,3S,4R)-1-(α-D-galactopyranosyloxy) -2-[(R) -2-hydroxytetracosanoylamino]-3,4-octadecanediol]	552	530	305	10	10	10	10	10	10	10	244	96	84	22.7 ± 3.7 × 10^4 /μl	94.8 ± 7.7 × 10^4 /μl	799
CCCCCCCCCCCCCC(=O)N[C@@H](CO[C@H]1O[C@H](CO)[C@H](O)[C@H](O)[C@H]1O)[C@H](O)CCCCCCCCCCCCC [Compound 10, (2S,3R)-1-(α-D-galactopyranosyloxy)-2-tetradecanoylamino-3-hexadecanol]	–	–	–	10	8	7	7	7	7	7	356	90	77	19.6 ± 4.0 × 10^4 /μl	87.2 ± 4.0 × 10^4 /μl	–
CCCCCCCC/C=C\CCCCCCCC(=O)N[C@@H](CO[C@H]1O[C@H](CO)[C@H](O)[C@H](O)[C@H]1O)[C@H](O)CCCCCCCCCCCCCCC [Compound 29, (2S,3R)-1-(α-D-galactopyranosyloxy)-2-oleoylamino-3-octadecanol]	–	–	–	10	9	8	8	8	8	8	382	187	97	18.1 ± 5.0 × 10^4 /μl	86.3 ± 3.1 × 10^4 /μl	865
CCCCCCCCCCCCCCCCCC(=O)N[C@@H](CO[C@H]1O[C@H](CO)[C@H](O)[C@H](O)[C@H]1O)[C@H](O)CCCCCCCCCCCCCCC [Compound 4, (2S,3R)-1-(α-D-galactopyranosyloxy)-2-octadecanoylamino-3-octadecanol]	–	–	–	10	10	8	7	5	5	5	297	75	151	14.3 ± 4.7 × 10^4 /μl	83.1 ± 6.5 × 10^4 /μl	–
